This is an account of results in US6852328B1, “Method and device for protection of wooden objects proximate soil from pest invasion” (priority 1989, dated 2005).

Each structure is given as a SMILES string.

Holding throughout (format): physicochemical
Data set [1] is described as follows: Release rate and longevity of high density polyethylene sheets as a function of thickness and temperature (Example 2). The following applies: 10 wt % pesticide, 10 wt % carrier; for Longevity @ 23° C. / Longevity @ 35° C.: 80 wt % HDPE; for Release Rate @ 23° C.: sheet, 80 wt % high density polyethylene (MA 778000), 60 mil. The source says:
Controlled release devices in the form of sheets are made having 10% wt % pesticide, 10 wt % carrier and 80 wt % high density polyethylene (MA 778000).

Data set [2] is described as follows: Release rate and longevity of encapsulated two-part construction (Example 3). As to conditions: two-part device about 100 g, inner part 60 wt % pesticide, 40 wt % carrier, outer part HDPE 120 mil. The text has this: A device having an inner part surrounded by or encapsulated by an outer part is constructed having an overall mass of about 100 g. The inner part contains 60 wt % pesticide and 40 wt % carrier. The outer part is high density polyethylene of a thickness of 120 mil.

Data set [3] in a line: Release rate and longevity of pellet (Example 4). As to conditions: pellet about 100 g, about 150 cm^2, 70 wt % HDPE, 20 wt % pesticide, 10 wt % carrier. The source says:
A pellet is made having a mass of about 100 g and a surface area of about 150 cm^2. The polymer is 70 wt % high density polyethylene, with 20 wt % pesticide and 10 wt % carrier. Comparing Table 4 to Table 3, it is evident that the encapsulated two-part construction provides longer life than the pellet.

Data set [4] can be described thus: Release rates of pesticide/polymer combinations, one inch squares cut from 1/8 inch sheets (Example 1). The following applies: 10% pesticide. The source says:
The following controlled release devices were made and tested to obtain their release rates (Table 1). The devices were made as follows. All devices, except for those employing S-113 urethane, were injection molded into a thin sheet about ⅛ inch thick. The device employing S-113 urethane was case, a method typically used for thermoset polymers. All thermoplastics were formulated using sufficient amount of carbon black to carry pesticides. All thermoplastic polymers were formulated with 10 percent pesticide, 3 or 7 percent carbon black to absorb liquid pesticide and 87 to 83 percent by weight of polymer. Specifically, devices made from thermoplastic polymers and deltamethrin and lambdacyhalothrin contained 3 percent of carbon black. The devices made from the remaining pesticides and thermoplastic polymers contained 7 percent of carbon black.
The devices made from S-113 urethane (a thermoset polymer) were made from a polymer mix containing 60% S-113, 40% castor oil, and 5% of TIPA catalyst by weight. The polymer mix comprised 90% of the total weight of the device. The pesticide, deltamethrin, comprised the remaining 10% of the device. No carbon black was used in this device. The polymer/pesticide mixture was cast, using a spin caster into a ⅛ inch thick sheet and heated at about 60° C. for about 40 to 60 minutes to cure the cast sheet.
One inch squares were then cut from the thin sheets that were injection molded or cast, and the squares were tested for release rates as shown in Table 1.

[5] abbreviates: polymer EVA 763, injection molded 1/8 inch sheet, 3 or 7% carbon black.
Setting [6] is: polymer Polyethylene MA78000, injection molded 1/8 inch sheet, 3 or 7% carbon black.
The mark [7] stands for this setting: polymer polyurethane 2200, injection molded 1/8 inch sheet, 3 or 7% carbon black.
Setting [8] is: polymer polyurethane 3100, injection molded 1/8 inch sheet, 3 or 7% carbon black.

As to `Cc1c(F)c(F)c(COC(=O)[C@@H]2[C@H](/C=C(\Cl)C(F)(F)F)C2(C)C)c(F)c1F` (racemic) [Tefluthrin], the “Longevity @ 23° C.” value turned out to be 9.1 years in data set [1] (sheet thickness 60 mil); 18.2 years in data set [1] (sheet thickness 120 mil); 39 years in data set [1] (sheet thickness 240 mil); 35 years in data set [2]; 33 years in data set [3]. In addition, the “Longevity @ 35° C.” value in data set [1] (sheet thickness 60 mil) is given as 3.1 years; in data set [1] (sheet thickness 120 mil), 5.9 years; in data set [1] (sheet thickness 240 mil), 10.4 years; in data set [2], 18 years; in data set [3] it was 16 years. In addition, the “Release Rate @ 23° C.” value in data set [1] is given as 1.3 μg/cm^2/day; in data set [2], 31 μg/cm^2/day; in data set [3], 11 μg/cm^2/day. Moreover, the “Release Rate” value in data set [4] (setting [5]) turned out to be 40.4 μg/cm2/day; in data set [4] (setting [6]), 27.0 μg/cm2/day; in data set [4] (setting [7]), 25.0 μg/cm2/day; in data set [4] (setting [8]), 6.4 μg/cm2/day.
Take `c1ccc(-c2ccccc2)cc1` [Biphenyl]: the “Longevity @ 23° C.” value in data set [1] (sheet thickness 60 mil) is on record as 2.5 years; in data set [1] (sheet thickness 120 mil) it was 5.1 years; in data set [1] (sheet thickness 240 mil), 11.2 years; in data set [2], 31 years; in data set [3], 22 years. Besides, the “Longevity @ 35° C.” value is 2.1 years in data set [1] (sheet thickness 60 mil); 4.4 years in data set [1] (sheet thickness 120 mil); 9.1 years in data set [1] (sheet thickness 240 mil); 23 years in data set [2]; 11 years in data set [3]. In addition, the “Release Rate @ 23° C.” value in data set [1] was 3.5 μg/cm^2/day; in data set [2] it was 35 μg/cm^2/day; in data set [3] it was 16 μg/cm^2/day.
For `CC1(C)C(C=C(Cl)Cl)C1C(=O)OC(C#N)c1cccc(Oc2ccccc2)c1` (stereo not drawn) [Cypermethrin], the “Release Rate” value in data set [4] (setting [5]) is on record as 27.3 μg/cm2/day; in data set [4] (setting [6]), 4.6 μg/cm2/day; in data set [4] (setting [7]), 0.7 μg/cm2/day; in data set [4] (setting [8]), 0.4 μg/cm2/day.
As for `CC1(C)[C@H](C(=O)O[C@H](C#N)c2cccc(Oc3ccccc3)c2)[C@@H]1C=C(Br)Br` [Deltamethrin], the “Release Rate” value is 7.2 μg/cm2/day in data set [4] (polymer Alipmtic PS-49-100, injection molded 1/8 inch sheet, 3% carbon black); 16.8 μg/cm2/day in data set [4] (polymer Aromatic 80A, injection molded 1/8 inch sheet, 3% carbon black); 25.2 μg/cm2/day in data set [4] (polymer S-113 urethane (thermoset), cast 1/8 inch sheet, no carbon black); 8.0 μg/cm2/day in data set [4] (polymer pellethane 2102-55D, injection molded 1/8 inch sheet, 3% carbon black); 8.8 μg/cm2/day in data set [4] (polymer pellethane 2102-80A, injection molded 1/8 inch sheet, 3% carbon black).
In the case of `CCOP(=S)(OCC)Oc1cc(C)nc(C(C)C)n1` [Diazinon], the “Longevity @ 23° C.” value in data set [1] (sheet thickness 60 mil) is reported as 1.1 years; in data set [1] (sheet thickness 120 mil), 2.3 years; in data set [1] (sheet thickness 240 mil) it was 4.8 years; in data set [2], 39 years; in data set [3] it was 8.1 years. Besides, the “Longevity @ 35° C.” value came to 0.6 years in data set [1] (sheet thickness 60 mil); 1.3 years in data set [1] (sheet thickness 120 mil); 2.7 years in data set [1] (sheet thickness 240 mil); 24 years in data set [2]; 5.1 years in data set [3]. Further, the “Release Rate @ 23° C.” value is listed as 11.7 μg/cm^2/day in data set [1], 28 μg/cm^2/day in data set [2] and 45 μg/cm^2/day in data set [3].
Take `Oc1ccc(Cl)cc1Cc1cc(Cl)ccc1O` [Dichlorophen]: the “Longevity @ 23° C.” value in data set [1] (sheet thickness 60 mil) was 1.6 years; in data set [1] (sheet thickness 120 mil), 3.3 years; in data set [1] (sheet thickness 240 mil), 6.8 years; in data set [2], 56 years; in data set [3], 33 years. Moreover, the “Longevity @ 35° C.” value was 1.4 years in data set [1] (sheet thickness 60 mil); 3.0 years in data set [1] (sheet thickness 120 mil); 6.4 years in data set [1] (sheet thickness 240 mil); 28 years in data set [2]; 16 years in data set [3]. For the same molecule, the “Release Rate @ 23° C.” value in data set [1] is recorded as 6.2 μg/cm^2/day; in data set [2], 24 μg/cm^2/day; in data set [3], 11 μg/cm^2/day. Besides, the “Release Rate” value in data set [4] (setting [6]) is on record as 6.2 μg/cm2/day.
As to `CC1(C)[C@H](C(=O)O[C@H](C#N)c2cccc(Oc3ccccc3)c2)[C@@H]1/C=C(\Cl)C(F)(F)F` [Lambdacyhalothrin], the “Release Rate” value in data set [4] (setting [5]) was determined as 20.6 μg/cm2/day; in data set [4] (setting [6]), 5.2 μg/cm2/day; in data set [4] (setting [7]) it was 2.0 μg/cm2/day; in data set [4] (setting [8]), 0.7 μg/cm2/day.
With `CC1(C)C(C=C(Cl)Cl)C1C(=O)OCc1cccc(Oc2ccccc2)c1` (stereo not drawn) [Permethrin], the “Longevity @ 23° C.” value amounted to 8.6 years in data set [1] (sheet thickness 60 mil); 17 years in data set [1] (sheet thickness 120 mil); 35 years in data set [1] (sheet thickness 240 mil); 68 years in data set [2]; 30 years in data set [3]. In addition, the “Longevity @ 35° C.” value in data set [1] (sheet thickness 60 mil) stood at 3.2 years; in data set [1] (sheet thickness 120 mil), 6.5 years; in data set [1] (sheet thickness 240 mil), 13 years; in data set [2], 38 years; in data set [3], 14 years. The “Release Rate @ 23° C.” value is given as 1.5 μg/cm^2/day in data set [1], 16 μg/cm^2/day in data set [2] and 12 μg/cm^2/day in data set [3]. The “Release Rate” value stood at 28.5 μg/cm2/day in data set [4] (setting [5]), 4.0 μg/cm2/day in data set [4] (setting [6]), 1.3 μg/cm2/day in data set [4] (setting [7]) and 1.4 μg/cm2/day in data set [4] (setting [8]).
